Experimental data from ChEMBL document CHEMBL4020788, “Synthesis, SAR and molecular docking studies of benzo[d]thiazole-hydrazones as potential antibacterial and antifungal agents” (2017).
Converted amounts (≈) assume the structure as drawn. The source made the active and inactive calls. The calls are words filed in the database; no cut-off is given here.

Experiments:
Format in all cases: functional
Escherichia coli [1] = assay: Antibacterial activity against Escherichia coli at 75 ug/ml after 24 hrs by agar well diffusion method
Bacillus subtilis [2] = assay: Antibacterial activity against Bacillus subtilis incubated for overnight by microdilution method
Escherichia coli [3] = assay: Antibacterial activity against Escherichia coli at 50 ug/ml after 24 hrs by agar well diffusion method
Staphylococcus aureus [4] = assay: Antibacterial activity against methicillin resistant Staphylococcus aureus MRSA090 at 25 ug/ml after 24 hrs by agar well diffusion method; conditions: MRSA090, 24 h, read-out: DIZ
Staphylococcus aureus [5] = assay: Antibacterial activity against Staphylococcus aureus at 75 ug/ml after 24 hrs by agar well diffusion method; conditions: read-out: DIZ
Staphylococcus aureus [6] = assay: Antibacterial activity against Staphylococcus aureus at 25 ug/ml after 24 hrs by agar well diffusion method; conditions: read-out: DIZ
Staphylococcus aureus [7] = assay: Antibacterial activity against methicillin resistant Staphylococcus aureus MRSA090 incubated for overnight by microdilution method
Fusarium verticillioides [8] = assay: Antifungal activity against Fusarium moniliforme after 48 to 72 hrs by microdilution method
Escherichia coli [9] = assay: Antibacterial activity against Escherichia coli at 25 ug/ml after 24 hrs by agar well diffusion method
Klebsiella pneumoniae [10] = assay: Antibacterial activity against Klebsiella pneumoniae at 100 ug/ml after 24 hrs by agar well diffusion method; conditions: read-out: DIZ
Bacillus subtilis [11] = assay: Antibacterial activity against Bacillus subtilis at 75 ug/ml after 24 hrs by agar well diffusion method; conditions: read-out: DIZ
Aspergillus niger [12] = assay: Antifungal activity against Aspergillus niger at 100 ug/ml after 48 hrs by agar well diffusion method; conditions: read-out: DIZ
Fusarium oxysporum [13] = assay: Antifungal activity against Fusarium oxysporum at 25 ug/ml after 48 hrs by agar well diffusion method; conditions: for zone of inhibition at 25 µg/mL: read-out: DIZ
Klebsiella pneumoniae [14] = assay: Antibacterial activity against Klebsiella pneumoniae at 75 ug/ml after 24 hrs by agar well diffusion method; conditions: read-out: DIZ
Escherichia coli [15] = assay: Antibacterial activity against Escherichia coli at 100 ug/ml after 24 hrs by agar well diffusion method
Staphylococcus aureus [16] = assay: Antibacterial activity against methicillin resistant Staphylococcus aureus MRSA090 at 75 ug/ml after 24 hrs by agar well diffusion method; conditions: MRSA090, 24 h, read-out: DIZ
Fusarium verticillioides [17] = assay: Antifungal activity against Fusarium moniliforme at 75 ug/ml after 48 hrs by agar well diffusion method; conditions: read-out: DIZ
Fusarium oxysporum [18] = assay: Antifungal activity against Fusarium oxysporum at 100 ug/ml after 48 hrs by agar well diffusion method; conditions: read-out: DIZ
Escherichia coli [19] = assay: Antibacterial activity against Escherichia coli incubated for overnight by microdilution method
Fusarium verticillioides [20] = assay: Antifungal activity against Fusarium moniliforme at 50 ug/ml after 48 hrs by agar well diffusion method; conditions: for zone of inhibition at 50 µg/mL: read-out: DIZ
Staphylococcus aureus [21] = assay: Antibacterial activity against methicillin resistant Staphylococcus aureus MRSA090 at 50 ug/ml after 24 hrs by agar well diffusion method; conditions: MRSA090, 24 h, read-out: DIZ
Aspergillus niger [22] = assay: Antifungal activity against Aspergillus niger at 75 ug/ml after 48 hrs by agar well diffusion method; conditions: read-out: DIZ
Klebsiella pneumoniae [23] = assay: Antibacterial activity against Klebsiella pneumoniae incubated for overnight by microdilution method
Fusarium oxysporum [24] = assay: Antifungal activity against Fusarium oxysporum after 48 to 72 hrs by microdilution method
Bacillus subtilis [25] = assay: Antibacterial activity against Bacillus subtilis at 25 ug/ml after 24 hrs by agar well diffusion method; conditions: read-out: DIZ
Fusarium verticillioides [26] = assay: Antifungal activity against Fusarium moniliforme at 100 ug/ml after 48 hrs by agar well diffusion method; conditions: read-out: DIZ
Bacillus subtilis [27] = assay: Antibacterial activity against Bacillus subtilis at 50 ug/ml after 24 hrs by agar well diffusion method; conditions: read-out: DIZ
Klebsiella pneumoniae [28] = assay: Antibacterial activity against Klebsiella pneumoniae at 50 ug/ml after 24 hrs by agar well diffusion method; conditions: read-out: DIZ
Staphylococcus aureus [29] = assay: Antibacterial activity against methicillin resistant Staphylococcus aureus MRSA090 at 100 ug/ml after 24 hrs by agar well diffusion method; conditions: MRSA090, 24 h, read-out: DIZ
Fusarium verticillioides [30] = assay: Antifungal activity against Fusarium moniliforme at 25 ug/ml after 48 hrs by agar well diffusion method; conditions: for zone of inhibition at 25 µg/mL: read-out: DIZ
Staphylococcus aureus [31] = assay: Antibacterial activity against Staphylococcus aureus at 50 ug/ml after 24 hrs by agar well diffusion method; conditions: read-out: DIZ
Aspergillus niger [32] = assay: Antifungal activity against Aspergillus niger at 50 ug/ml after 48 hrs by agar well diffusion method; conditions: read-out: DIZ
Staphylococcus aureus [33] = assay: Antibacterial activity against Staphylococcus aureus incubated for overnight by microdilution method
Aspergillus niger [34] = assay: Antifungal activity against Aspergillus niger at 25 ug/ml after 48 hrs by agar well diffusion method; conditions: read-out: DIZ
Klebsiella pneumoniae [35] = assay: Antibacterial activity against Klebsiella pneumoniae at 25 ug/ml after 24 hrs by agar well diffusion method; conditions: read-out: DIZ
Fusarium oxysporum [36] = assay: Antifungal activity against Fusarium oxysporum at 50 ug/ml after 48 hrs by agar well diffusion method; conditions: for zone of inhibition at 50 µg/mL: read-out: DIZ
Bacillus subtilis [37] = assay: Antibacterial activity against Bacillus subtilis at 100 ug/ml after 24 hrs by agar well diffusion method; conditions: read-out: DIZ
Fusarium oxysporum [38] = assay: Antifungal activity against Fusarium oxysporum at 75 ug/ml after 48 hrs by agar well diffusion method; conditions: for zone of inhibition at 75 µg/mL: read-out: DIZ
Staphylococcus aureus [39] = assay: Antibacterial activity against Staphylococcus aureus at 100 ug/ml after 24 hrs by agar well diffusion method; conditions: read-out: DIZ
Aspergillus niger [40] = assay: Antifungal activity against Aspergillus niger after 48 to 72 hrs by microdilution method

Row | SMILES | zone of inhibition at 25 µg/mL (Staphylococcus aureus [4]) [mm] | zone of inhibition at 75 µg/mL (Staphylococcus aureus [5]) [mm] | zone of inhibition at 25 µg/mL (Staphylococcus aureus [6]) [mm] | MIC (Fusarium verticillioides [8]) [µg/mL] | zone of inhibition at 100 µg/mL (Klebsiella pneumoniae [10]) [mm] | zone of inhibition at 75 µg/mL (Bacillus subtilis [11]) [mm] | zone of inhibition at 100 µg/mL (Aspergillus niger [12]) [mm] | zone of inhibition at 75 µg/mL (Klebsiella pneumoniae [14]) [mm] | zone of inhibition at 75 µg/mL (Staphylococcus aureus [16]) [mm] | zone of inhibition at 75 µg/mL (Fusarium verticillioides [17]) [mm] | zone of inhibition at 100 µg/mL (Fusarium oxysporum [18]) [mm] | zone of inhibition at 50 µg/mL (Staphylococcus aureus [21]) [mm] | zone of inhibition at 75 µg/mL (Aspergillus niger [22]) [mm] | MIC (Fusarium oxysporum [24]) [µg/mL] | zone of inhibition at 25 µg/mL (Bacillus subtilis [25]) [mm] | zone of inhibition at 100 µg/mL (Fusarium verticillioides [26]) [mm] | zone of inhibition at 50 µg/mL (Bacillus subtilis [27]) [mm] | zone of inhibition at 50 µg/mL (Klebsiella pneumoniae [28]) [mm] | zone of inhibition at 50 µg/mL (Aspergillus niger [32]) [mm] | zone of inhibition at 25 µg/mL (Aspergillus niger [34]) [mm] | other results
1 | Cc1cccc2nc(N/N=C/c3ccc(O)cc3O)sc12 | 12 | 23 | 14 | 25 (≈ 83.5 µM) | 25 | 24 | 21 | 21 | 20 | 10 | 8 | 16 | 17 | 27 (≈ 90.2 µM) | 12 | 14 | 18 | 16 | 14 | 8 | zone of inhibition at 75 µg/mL (Escherichia coli [1]; read-out: DIZ): 17 mm; MIC (Bacillus subtilis [2]): 29 µg/mL (≈ 96.9 µM); zone of inhibition at 50 µg/mL (Escherichia coli [3]; read-out: DIZ): 12 mm; MIC (Staphylococcus aureus [7]): 20 µg/mL (≈ 66.8 µM); zone of inhibition at 25 µg/mL (Escherichia coli [9]; read-out: DIZ): 6 mm; diameter of the inhibition zone (DIZ) (Fusarium oxysporum [13]): inactive; zone of inhibition at 100 µg/mL (Escherichia coli [15]; read-out: DIZ): 20 mm; MIC (Escherichia coli [19]): 33 µg/mL (≈ 110 µM); diameter of the inhibition zone (DIZ) (Fusarium verticillioides [20]): inactive; MIC (Klebsiella pneumoniae [23]): 24 µg/mL (≈ 80.2 µM); zone of inhibition at 100 µg/mL (Staphylococcus aureus [29]): 24 mm; diameter of the inhibition zone (DIZ) (Fusarium verticillioides [30]): inactive; zone of inhibition at 50 µg/mL (Staphylococcus aureus [31]): 18 mm; MIC (Staphylococcus aureus [33]): 24 µg/mL (≈ 80.2 µM); zone of inhibition at 25 µg/mL (Klebsiella pneumoniae [35]): 12 mm; diameter of the inhibition zone (DIZ) (Fusarium oxysporum [36]): inactive; zone of inhibition at 100 µg/mL (Bacillus subtilis [37]): 28 mm; diameter of the inhibition zone (DIZ) (Fusarium oxysporum [38]): inactive; zone of inhibition at 100 µg/mL (Staphylococcus aureus [39]): 26 mm
2 | CC(=O)N1CCN(c2ccc(OCC3COC(Cn4ccnc4)(c4ccc(Cl)cc4Cl)O3)cc2)CC1 (centres undefined) [KETOCONAZOLE] |  |  |  | 27 (≈ 50.8 µM) |  |  | 37 |  |  | 31 | 38 |  | 34 | 24 (≈ 45.2 µM) |  | 34 |  |  | 28 | 24 | zone of inhibition at 25 µg/mL (Fusarium oxysporum [13]): 23 mm; zone of inhibition at 50 µg/mL (Fusarium verticillioides [20]): 25 mm; zone of inhibition at 25 µg/mL (Fusarium verticillioides [30]): 21 mm; MIC (Aspergillus niger [40]): 28 µg/mL (≈ 52.7 µM); zone of inhibition at 50 µg/mL (Fusarium oxysporum [36]): 22 mm; zone of inhibition at 75 µg/mL (Fusarium oxysporum [38]): 32 mm
3 | Cc1cccc2nc(N/N=C/c3ccc(Cl)cc3Cl)sc12 | 5 | 16 | 4 | 28 (≈ 83.3 µM) | 22 | 13 | 33 | 19 | 13 | 28 | 31 | 8 | 29 | 26 (≈ 77.3 µM) | 4 | 32 | 9 | 15 | 24 | 20 | diameter of the inhibition zone (DIZ) (Escherichia coli [1]): inactive; diameter of the inhibition zone (DIZ) (Escherichia coli [3]): inactive; diameter of the inhibition zone (DIZ) (Escherichia coli [9]): inactive; zone of inhibition at 25 µg/mL (Fusarium oxysporum [13]): 18 mm; diameter of the inhibition zone (DIZ) (Escherichia coli [15]): inactive; zone of inhibition at 50 µg/mL (Fusarium verticillioides [20]): 21 mm; zone of inhibition at 100 µg/mL (Staphylococcus aureus [29]): 16 mm; zone of inhibition at 25 µg/mL (Fusarium verticillioides [30]): 17 mm; zone of inhibition at 50 µg/mL (Staphylococcus aureus [31]): 12 mm; MIC (Aspergillus niger [40]): 25 µg/mL (≈ 74.4 µM); zone of inhibition at 25 µg/mL (Klebsiella pneumoniae [35]): 10 mm; zone of inhibition at 50 µg/mL (Fusarium oxysporum [36]): 22 mm; zone of inhibition at 100 µg/mL (Bacillus subtilis [37]): 16 mm; zone of inhibition at 75 µg/mL (Fusarium oxysporum [38]): 27 mm; zone of inhibition at 100 µg/mL (Staphylococcus aureus [39]): 20 mm
